Results from US10508285B2, “Method for screening of genes conferring increased tolerance to herbicides” (priority 2014, dated 2019).

Tested on: Protoporphyrinogen IX Oxidase (PPO) R128L
Type: cell-based, Amaranthus tuberculatus

Row | SMILES | Tolerance factor
1 | C#CCN1C(=O)C(F)(F)Oc2cc(F)c(-n3c(=O)n(C)c(=S)n(C)c3=O)cc21 [BAS 850H] | 28.7
2 | CC(C)N(C)S(=O)(=O)NC(=O)c1cc(-n2c(=O)cc(C(F)(F)F)n(C)c2=O)c(F)cc1Cl [Saflufenacil] | 170
